Where two headings read alike, the source gives them in different places.
Columns and labels:
[1] = system: Trichomonas vaginalis G3 trophozoites; details: for T.vaginalis_Absorbance_Rep1: replicate 1, raw absorbance; for T.vaginalis_Absorbance_Rep2: replicate 2, raw absorbance
[2] = system: nontumorigenic neonatal foreskin fibroblast (NFF) cell line
[3] = replicate 1, parasite screen at 1 µg/mL
[4] = replicate 2, parasite screen at 1 µg/mL
[5] = HTS replicate 1, parasite screen 1 µg/mL
[6] = HTS replicate 2, parasite screen 1 µg/mL
[7] = NFF fibroblasts, single concentration 5 µg/mL
[8] = HTS single concentration, parasite screen 1 µg/mL, replicate 1
[9] = HTS single concentration, parasite screen 1 µg/mL, replicate 2
[10] = NFF_NS1 screen 5 µg/mL, single concentration
[11] = HTS, parasite screen at 1 µg/mL, replicate 1
[12] = HTS, parasite screen at 1 µg/mL, replicate 2
[13] = NFF fibroblast screen at 5 µg/mL, A = active, I = inactive
[14] = HTS, parasite screen at 1 µg/mL
[15] = parasite screen at 1 µg/mL, replicate 1
[16] = parasite screen at 1 µg/mL, replicate 2
[17] = NFF_NS1 screen at 5 µg/mL, NFF cells

CCCCC(C)C=C(C)C=C(C)C(=O)NC1=CC(O)(C=CC=CC=CC(=O)NC2=C(O)CCC2=O)C2OC2C1=O (stereo not drawn) [BIA-M1905]
T.vaginalis_%inb_Rep1 [1, 3]: 10.60% | T.vaginalis_%inb_Rep2 [1, 4]: 12.76% | NFF_Activity ([2]; NFF cells, screen at 5 µg/mL): I (otherwise these were reported as inactive (I))

O=C(O)CC[N+](=O)[O-] [Nitropropionic acid, 3-]
T.vaginalis_%inb_Rep1 [1, 5]: 18.00% | T.vaginalis_%inb_Rep2 [1, 6]: 11.87% | NFF_Activity [2, 7]: I (otherwise these were reported as inactive (I))

CCCCCC[C@H]1C(=O)O[C@H](C)[C@H](NC(=O)c2cccc(NC=O)c2O)C(=O)O[C@@H](C)[C@@H]1OC(=O)CC(C)C [BIA-A1442]
T.vaginalis_%inb_Rep1 [1, 8]: 17.88% | T.vaginalis_%inb_Rep2 [1, 9]: 12.87% | NFF_Activity [2, 10]: I (otherwise these were reported as inactive (I))

CN[C@@H]1C[C@H]2O[C@@](C)([C@@H]1OC)n1c3ccccc3c3c4c(c5c6ccccc6n2c5c31)C(=O)N[C@H]4O [UCN-02]
T.vaginalis_%inb_Rep1 [1, 11]: 9.65% | T.vaginalis_%inb_Rep2 [1, 12]: 20.96% | NFF_Activity [2, 13]: A (active (A) compounds having >25% inhibitory activity)

CC[C@H](C)[C@H]1O[C@]2(C=C[C@@H]1C)C[C@@H]1C[C@@H](C/C=C(\C)[C@@H](O[C@H]3C[C@H](OC)[C@@H](O[C@H]4C[C@H](OC)[C@H](NC(C)=O)[C@H](C)O4)[C@H](C)O3)[C@@H](C)/C=C/C=C3\CO[C@@H]4[C@H](O)C(C)=C[C@@H](C(=O)O1)[C@]34O)O2 [Eprinomectin B1a]
T.vaginalis_%inb_Rep1 [1, 11]: 13.46% | T.vaginalis_Absorbance_Rep1 [1, 14]: 0.959 | T.vaginalis_%inb_Rep2 [1, 12]: 14.17% | T.vaginalis_Absorbance_Rep2 [1, 14]: 0.816 | NFF_Activity ([2]; NFF_NS1 screen at 5 µg/mL): I (otherwise these were reported as inactive (I))

C[C@H]1CCN2C[C@]34C[C@@]5(C(=O)Nc6c5ccc5c6OC=CC(C)(C)O5)C(C)(C)[C@@H]3C[C@]12C(=O)N4C [Paraherquamide E]
T.vaginalis_%inb_Rep1 [1, 5]: 16.63% | T.vaginalis_%inb_Rep2 [1, 6]: 15.01% | NFF_Activity [2, 7]: I (otherwise these were reported as inactive (I))

C/C=C/[C@@H]1C=C[C@@H]2C[C@H](C)CC[C@H]2[C@]1(C)/C(O)=C1/C(=O)[C@H](CO)N(C)C1=O [Equisetin]
T.vaginalis_%inb_Rep1 [1, 11]: 12.17% | T.vaginalis_Absorbance_Rep1 [1, 14]: 0.942 | T.vaginalis_%inb_Rep2 [1, 12]: 15.65% | T.vaginalis_Absorbance_Rep2 [1, 14]: 0.879 | NFF_Activity ([2]; NFF_NS1 screen at 5 µg/mL): I (otherwise these were reported as inactive (I))

COc1cc(/C=C/C(=O)O)ccc1O [Ferulic acid]
T.vaginalis_%inb_Rep1 [1, 11]: 13.69% | T.vaginalis_Absorbance_Rep1 [1, 14]: 0.972 | T.vaginalis_%inb_Rep2 [1, 12]: 12.64% | T.vaginalis_Absorbance_Rep2 [1, 14]: 0.832 | NFF_Activity ([2]; NFF_NS1 screen at 5 µg/mL): I (otherwise these were reported as inactive (I))

Cc1cc(O)c(C)c(O)c1C(=O)O [BIA-M1661]
T.vaginalis_%inb_Rep1 [1, 3]: 12.78% | T.vaginalis_%inb_Rep2 [1, 4]: 12.06% | NFF_Activity ([2]; NFF cells, screen at 5 µg/mL): A (active (A) compounds having >25% inhibitory activity)

CC1CCCC(O)CCCCCc2cc(O)cc(O)c2C(=O)O1 (stereo not drawn) [Zearalanol, beta-]
T.vaginalis_%inb_Rep1 [1, 11]: 9.65% | T.vaginalis_%inb_Rep2 [1, 12]: 13.83% | NFF_Activity [2, 13]: I (otherwise these were reported as inactive (I))

COc1cc2c(c3oc(=O)c4c(c13)CCOC4=O)[C@@H]1C=CO[C@@H]1O2 [BIA-A1234]
T.vaginalis_%inb_Rep1 [1, 8]: 14.70% | T.vaginalis_%inb_Rep2 [1, 9]: 13.02% | NFF_Activity [2, 10]: I (otherwise these were reported as inactive (I))

CN=C1NC(=O)[C@H]([C@H](C)c2c[nH]c3ccccc23)O1 [BIA-I1040]
T.vaginalis_%inb_Rep1 [1, 3]: 25.76% | T.vaginalis_%inb_Rep2 [1, 4]: 5.58% | NFF_Activity ([2]; NFF cells, screen at 5 µg/mL): I (otherwise these were reported as inactive (I))

C/C=C/C1=CC(=O)[C@@H](O)[C@@H]1O [BIA-T1408]
T.vaginalis_%inb_Rep1 [1, 15]: 6.82% | T.vaginalis_%inb_Rep2 [1, 16]: 13.71% | NFF_Activity [2, 17]: I (otherwise these were reported as inactive (I))

COC(=O)C1=CO[C@@H](C)[C@@H]2CN3CCc4c([nH]c5cc(OC)c(OC)cc45)[C@@H]3C[C@H]12 [BIA-I1957]
T.vaginalis_%inb_Rep1 [1, 3]: 9.33% | T.vaginalis_%inb_Rep2 [1, 4]: 14.44% | NFF_Activity ([2]; NFF cells, screen at 5 µg/mL): I (otherwise these were reported as inactive (I))

CCC[C@@H]1C[C@@H](C(=O)N[C@@H]([C@H]2O[C@H](SC)[C@H](O)[C@@H](O)[C@H]2O)[C@@H](C)O)N(C)C1 [BIA-L1457]
T.vaginalis_%inb_Rep1 [1, 3]: 12.27% | T.vaginalis_%inb_Rep2 [1, 4]: 9.94% | NFF_Activity ([2]; NFF cells, screen at 5 µg/mL): I (otherwise these were reported as inactive (I))

CC(C)=CCC[C@H](C)[C@@]1(O)CC[C@]2(C)C[C@H]3[C@H](C(=O)C[C@@]3(C)O)/C(C=O)=C\C[C@H]21 [Ophiobolin B]
T.vaginalis_%inb_Rep1 [1, 5]: 11.82% | T.vaginalis_%inb_Rep2 [1, 6]: 13.09% | NFF_Activity [2, 7]: A (active (A) compounds having >25% inhibitory activity)

C[C@@H]1Cc2ccc(C(=O)N[C@@H](Cc3ccccc3)C(=O)O)c(O)c2C(=O)O1 [Ochratoxin B]
T.vaginalis_%inb_Rep1 [1, 5]: 13.18% | T.vaginalis_%inb_Rep2 [1, 6]: 9.36% | NFF_Activity [2, 7]: I (otherwise these were reported as inactive (I))

CN[C@@H]1C[C@H]2O[C@@](C)([C@@H]1OC)n1c3ccccc3c3c4c(c5c6ccccc6n2c5c31)C(=O)N[C@H]4O [UCN-01]
T.vaginalis_%inb_Rep1 [1, 11]: 11.33% | T.vaginalis_%inb_Rep2 [1, 12]: 13.65% | NFF_Activity [2, 13]: A (active (A) compounds having >25% inhibitory activity)

CC=CC=CC1OC(O)(C(C)C(O)C(C)C2OC(=O)C(OC)=CC(C)=CC(C)C(O)C(C)CC(C)=CC=CC2OC)CC(OC2CC(O)C(O)C(C)O2)C1C (stereo not drawn) [PC-766B]
T.vaginalis_%inb_Rep1 [1, 5]: 72.87% | T.vaginalis_%inb_Rep2 [1, 6]: 76.65% | NFF_Activity [2, 7]: A (active (A) compounds having >25% inhibitory activity)

CCCCCCCCCCCCCCCc1cc(O)cc(O)c1 [BIA-A1689]
T.vaginalis_%inb_Rep1 [1, 8]: 16.26% | T.vaginalis_%inb_Rep2 [1, 9]: 11.86% | NFF_Activity [2, 10]: I (otherwise these were reported as inactive (I))

Cc1cc(O)cc(=O)o1 [BIA-H1736]
T.vaginalis_%inb_Rep1 [1, 3]: 11.05% | T.vaginalis_%inb_Rep2 [1, 4]: 13.86% | NFF_Activity ([2]; NFF cells, screen at 5 µg/mL): I (otherwise these were reported as inactive (I))

CCC(C)C(=O)OC1CCC=C2C=CC(C)C(CCC3CC(O)CC(=O)O3)C21 (stereo not drawn) [BIA-M1209]
T.vaginalis_%inb_Rep1 [1, 3]: 12.32% | T.vaginalis_%inb_Rep2 [1, 4]: 10.01% | NFF_Activity ([2]; NFF cells, screen at 5 µg/mL): I (otherwise these were reported as inactive (I))

C[C@H]1NC(=O)[C@@H]2CCCCN2C(=O)CN(C)C(=O)CNC(=O)[C@@H]2CCCCN2C(=O)[C@H](NC(=O)c2nc3ccccc3cc2O)[C@@H](C)NC(=O)[C@@H]2CCCCN2C(=O)CN(C)C(=O)CNC(=O)[C@@H]2CCCCN2C(=O)[C@@H]1NC(=O)c1nc2ccccc2cc1O [Quinaldopeptin]
T.vaginalis_%inb_Rep1 [1, 5]: 92.82% | T.vaginalis_%inb_Rep2 [1, 6]: 95.37% | NFF_Activity [2, 7]: I (otherwise these were reported as inactive (I))

CC[C@]1(C)C[C@@H](OC(=O)CSc2n[nH]c(N)n2)[C@]2(C)[C@H](C)CC[C@]3(CCC(=O)[C@H]32)[C@@H](C)[C@@H]1O [BIA-A1489]
T.vaginalis_%inb_Rep1 [1, 8]: 14.65% | T.vaginalis_%inb_Rep2 [1, 9]: 19.67% | NFF_Activity [2, 10]: I (otherwise these were reported as inactive (I))

CC[C@H](C)[C@H]1O[C@]2(CC[C@@H]1C)C[C@@H]1C[C@@H](C/C=C(\C)[C@@H](O[C@H]3C[C@H](OC)[C@@H](O[C@H]4C[C@H](OC)[C@@H](O)[C@H](C)O4)[C@H](C)O3)[C@@H](C)/C=C/C=C3\CO[C@@H]4[C@H](O)C(C)C=C(C(=O)O1)[C@]34O)O2 (stereo partly drawn) [BIA-I1581]
T.vaginalis_%inb_Rep1 [1, 3]: 13.44% | T.vaginalis_%inb_Rep2 [1, 4]: 13.34% | NFF_Activity ([2]; NFF cells, screen at 5 µg/mL): I (otherwise these were reported as inactive (I))

Cc1cc(OC(=O)c2c(C)cc(O)cc2O)cc(O)c1C(=O)O [BIA-L1669]
T.vaginalis_%inb_Rep1 [1, 3]: 11.51% | T.vaginalis_%inb_Rep2 [1, 4]: 3.53% | NFF_Activity ([2]; NFF cells, screen at 5 µg/mL): I (otherwise these were reported as inactive (I))

COc1oc(C2C/C(=C/C(C)=C/C(C)=C/C(C)=C/c3ccc([N+](=O)[O-])cc3)CO2)c(C)c(=O)c1C (stereo not drawn) [Neoaureothin]
T.vaginalis_%inb_Rep1 [1, 5]: 14.76% | T.vaginalis_%inb_Rep2 [1, 6]: 12.19% | NFF_Activity [2, 7]: I (otherwise these were reported as inactive (I))

C=C1C(=O)OC2C(=O)OC(CCCCCCCC)C12 (stereo not drawn) [BIA-A1409]
T.vaginalis_%inb_Rep1 [1, 8]: 15.19% | T.vaginalis_%inb_Rep2 [1, 9]: 12.94% | NFF_Activity [2, 10]: A (active (A) compounds having >25% inhibitory activity)

CC(C)[C@@H]1OC(=O)[C@@H](Cc2ccccc2)N(C)C(=O)[C@H](C(C)C)OC(=O)[C@@H](Cc2ccccc2)N(C)C(=O)[C@H](C(C)C)OC(=O)[C@@H](Cc2ccccc2)N(C)C1=O [BIA-B1238]
T.vaginalis_%inb_Rep1 [1, 8]: 16.21% | T.vaginalis_%inb_Rep2 [1, 9]: 4.70% | NFF_Activity [2, 10]: I (otherwise these were reported as inactive (I))

CC[C@H]1OC(=O)[C@H](C)[C@@H](O[C@H]2C[C@@](C)(OC)[C@@H](O)[C@H](C)O2)[C@H](C)[C@@H](O[C@@H]2O[C@H](C)C[C@H](N(C)C)[C@H]2O)[C@](C)(O)C[C@@H](C)/C(=N\OCOCCOC)[C@H](C)[C@@H](O)[C@]1(C)O [BIA-R1315]
T.vaginalis_%inb_Rep1 [1, 15]: 1.36% | T.vaginalis_%inb_Rep2 [1, 16]: 5.85% | NFF_Activity [2, 17]: I (otherwise these were reported as inactive (I))

CN1C(=O)c2ccccc2-n2c(nc3ccccc3c2=O)C12OC2c1ccccc1 (stereo not drawn) [BIA-B1679]
T.vaginalis_%inb_Rep1 [1, 8]: 16.96% | T.vaginalis_%inb_Rep2 [1, 9]: 15.26% | NFF_Activity [2, 10]: I (otherwise these were reported as inactive (I))

CO[C@@H]1C[C@H]2C=C[C@H]3[C@H]4O[C@]2(/C(C)=C\[C@@H](C)[C@@H]([C@@H](C)O)OC1=O)[C@@H]3[C@H](O)[C@@H](C)[C@H]4O [Nodusmicin]
T.vaginalis_%inb_Rep1 [1, 5]: 11.16% | T.vaginalis_%inb_Rep2 [1, 6]: 10.52% | NFF_Activity [2, 7]: I (otherwise these were reported as inactive (I))

C[N+]1(C)CCC2(c3cccc4c3NC3C4(C45CC[N+](C)(C)C4Nc4ccccc45)CC[N+]3(C)C)c3ccccc3NC21.[I-].[I-].[I-] (stereo not drawn) [BIA-H1942]
T.vaginalis_%inb_Rep1 [1, 3]: 9.49% | T.vaginalis_%inb_Rep2 [1, 4]: 13.53% | NFF_Activity ([2]; NFF cells, screen at 5 µg/mL): I (otherwise these were reported as inactive (I))

— article PMC7897990, “TriTOX: A novel Trichomonas vaginalis assay platform for high-throughput screening of compound libraries” (International Journal for Parasitology: Drugs and Drug …, 2021)
